Source: ChEMBL document CHEMBL1143470, “Synthesis and anticonvulsant activity of 7-alkoxyl-4,5-dihydro-[1,2,4]triazolo[4,3-a]quinolines” (Bioorg Med Chem Lett, 2005)

Tests used:
Mus musculus [1] = organism: Mus musculus; assay: Concentration of compound producing anticonvulsant drug-induced neurologic deficit after 0.5 hrs done by rotarod ataxia test in mouse; na=no activity; assay type: functional, organism-based
Mus musculus [2] = assay: Concentration producing seizure after 0.5 hrs tested by MES (Maximal ElectroShock test) done after 30 min of administration in mouse; na=no activity; assay type: functional, organism-based
Mus musculus [3] = organism: Mus musculus; assay: Concentration producing anticonvulsant drug-induced neurologic deficit after 4 hrs done by rotarod ataxia test in mouse; na=no activity; assay type: functional, organism-based
Mus musculus [4] = assay: Concentration producing seizure after 0.5 hrs tested by ScMet (Subcutaneous pentylenetetrazole test) done after 30 min of administration of 85 mg/kg pentylenetetrazol in mouse; na=no activity; assay type: functional, organism-based; parameters: dose 85 mg/kg
Mus musculus [5] = assay: Concentration producing seizure after 4 hrs tested by MES (Maximal ElectroShock test) done after 30 min of administration in mouse; na=no activity; assay type: functional, organism-based
Mus musculus [6] = assay: Concentration producing seizure after 4 hrs tested by ScMet (Subcutaneous pentylenetetrazole test) done after 30 min of administration of 85 mg/kg pentylenetetrazol in mouse; na=no activity; assay type: functional, organism-based; parameters: dose 85 mg/kg
Mus musculus [7] = assay: Concentration producing seizure after 0.5 hrs tested by ScMet (Subcutaneous pentylenetetrazole test) done after 30 min of administration of 85 mg/kg pentylenetetrazol in mouse
Mus musculus [8] = organism: Mus musculus; assay: Concentration of compound producing anticonvulsant drug-inducedneurologic deficit after 0.5 hrs done by rotarod ataxia test in mouse; conditions: in vivo
Mus musculus [9] = assay: Concentration producing seizure after 0.5 hrs tested by MES (Maximal ElectroShock test) done after 30 min of administration in mouse
Mus musculus [10] = assay: Anticonvulsant activity of compound expressed in terms of median effective dose (ED50) produced after ScMet test in mouse by i.p. administration (range 21.4-28.2); conditions: ip
Mus musculus [11] = organism: Mus musculus; assay: Protective index (TD50/ED50) produced by compound in mouse after MES test
Mus musculus [12] = assay: Anticonvulsant activity of compound expressed in terms of median effective dose (ED50) produced after MES test in mouse by i.p. administration (range 19.5-28); conditions: ip
Mus musculus [13] = organism: Mus musculus; assay: Protective index (TD50/ED50) produced by compound in mouse after ScMet test
Mus musculus [14] = assay: Anticonvulsant activity of compound expressed in terms of median effective dose (ED50) produced after MES test in mouse by i.p. administration (range 11.5-15.8); conditions: ip
Mus musculus [15] = assay: Anticonvulsant activity of compound expressed in terms of median effective dose (ED50) produced after ScMet test in mouse by i.p. administration (range 12.5-20.6); conditions: ip
Mus musculus [16] = assay: Anticonvulsant activity of compound expressed in terms of median effective dose (ED50) produced after ScMet test in mouse by i.p. administration; conditions: ip
Mus musculus [17] = assay: Anticonvulsant activity of compound expressed in terms of median effective dose (ED50) produced after MES test in mouse by i.p. administration (range 5.5-14.1); conditions: ip
Mus musculus [18] = assay: Anticonvulsant activity of compound expressed in terms of median effective dose (ED50) produced after MES test in mouse by i.p. administration (range 14.8-20.4); conditions: ip
Mus musculus [19] = assay: Anticonvulsant activity of compound expressed in terms of median effective dose (ED50) produced after ScMet test in mouse by i.p. administration (range 21.6-26.7); conditions: ip
Rattus norvegicus = assay: Neurotoxicity expressed as median toxic dose (TD50) produced after Rotarod ataxia test in mouse by i.p. administration (range 62.8-72.9); assay type: functional; conditions: ip
Mus musculus [20] = assay: Anticonvulsant activity of compound expressed in terms of median effective dose (ED50) produced after MES test in mouse by i.p. administration (range 247-338); conditions: ip
Mus musculus [21] = assay: Anticonvulsant activity of compound expressed in terms of median effective dose (ED50) produced after ScMet test in mouse by i.p. administration (range 123-177); conditions: ip
Mus musculus [22] = assay: Anticonvulsant activity of compound expressed in terms of median effective dose (ED50) produced after MES test in mouse by i.p. administration (range 17-24.5); conditions: ip
Mus musculus [23] = assay: Anticonvulsant activity of compound expressed in terms of median effective dose (ED50) produced after ScMet test in mouse by i.p. administration (range 9.3-13.1); conditions: ip
Mus musculus [24] = assay: Concentration producing seizure after 0.5 hrs tested by ScMet (Subcutaneous pentylenetetrazole test) done after 30 min of administration of 85 mg/kg pentylenetetrazol in mouse (no activity)
Mus musculus [25] = assay: Anticonvulsant activity of compound expressed in terms of median effective dose (ED50) produced after MES test in mouse by i.p. administration (range 12.9-10.9); conditions: ip
Mus musculus [26] = organism: Mus musculus; assay: Concentration of compound producing anticonvulsant drug-inducedneurologic deficit after 0.5 hrs done by rotarod ataxia test in mouse; conditions: in vivo; remark: listed apart in the source
Mus musculus [27] = assay: Concentration producing seizure after 4 hrs tested by MES (Maximal ElectroShock test) done after 30 min of administration in mouse
Mus musculus [28] = assay: Anticonvulsant activity of compound expressed in terms of median effective dose (ED50) produced after ScMet test in mouse by i.p. administration (range 5.7-7.9); conditions: ip

| Structure (SMILES) | DOSE (Mus musculus [1]) | DOSE (Mus musculus [3]) | DOSE (Mus musculus [5]) | DOSE (Mus musculus [6]) | Dose (Mus musculus [7]) | Dose (Mus musculus [8]) | Dose (Mus musculus [9]) | PI (Mus musculus [13]) | also measured |
| --- | --- | --- | --- | --- | --- | --- | --- | --- | --- |
| CCCCCCCCCCCCOc1ccc2c(c1)CCc1nncn1-2 | No activity | No activity | No activity | No activity | – | – | – | – | DOSE (Mus musculus [2]): No activity; DOSE (Mus musculus [4]): No activity |
| CCCOc1ccc2c(c1)CCc1nncn1-2 | – | No activity | No activity | No activity | 100 mg/kg | 100 mg/kg | 100 mg/kg | – | – |
| CCOc1ccc2c(c1)CCc1nncn1-2 | No activity | No activity | – | – | – | – | – | – | DOSE (Mus musculus [2]): No activity; DOSE (Mus musculus [4]): No activity |
| Brc1cccc(COc2ccc3c(c2)CCc2nncn2-3)c1 | – | No activity | No activity | No activity | 30 mg/kg | 100 mg/kg | 30 mg/kg | 4 | ED50 (Mus musculus [10]): 24.5 mg/kg; PI (Mus musculus [11]): 4.2; ED50 (Mus musculus [12]): 23.3 mg/kg |
| CCCCOc1ccc2c(c1)CCc1nncn1-2 | – | No activity | No activity | No activity | 100 mg/kg | 100 mg/kg | 100 mg/kg | – | – |
| CCCCCCOc1ccc2c(c1)CCc1nncn1-2 | – | No activity | No activity | No activity | 30 mg/kg | 100 mg/kg | 30 mg/kg | 1.7 | ED50 (Mus musculus [14]): 13.5 mg/kg; PI (Mus musculus [11]): 2.2; ED50 (Mus musculus [15]): 17.7 mg/kg |
| NC(=O)N1c2ccccc2C=Cc2ccccc21 [CARBAMAZEPINE] | – | – | – | – | – | – | – | <0.22 | ED50 (Mus musculus [16]): > 100 mg/kg; ED50 (Mus musculus [17]): 8.8 mg/kg |
| Clc1ccc(COc2ccc3c(c2)CCc2nncn2-3)cc1Cl | No activity | No activity | No activity | No activity | – | – | – | – | DOSE (Mus musculus [2]): No activity; DOSE (Mus musculus [4]): No activity |
| O=C1NC(=O)C(c2ccccc2)(c2ccccc2)N1 [PHENYTOIN] | – | – | – | – | – | – | – | <0.22 | ED50 (Mus musculus [16]): > 300 mg/kg |
| c1ccc(COc2ccc3c(c2)CCc2nncn2-3)cc1 | – | No activity | No activity | No activity | 100 mg/kg | 100 mg/kg | 30 mg/kg | 2.6 | ED50 (Mus musculus [18]): 17.3 mg/kg; PI (Mus musculus [11]): 3.5; ED50 (Mus musculus [19]): 24 mg/kg |
| CCC1(c2ccccc2)C(=O)NC(=O)NC1=O [PHENOBARBITAL] | – | – | – | – | – | – | – | – | ED50 (Rattus norvegicus): 69 mg/kg |
| COc1ccc(COc2ccc3c(c2)CCc2nncn2-3)cc1 | – | No activity | No activity | No activity | 100 mg/kg | 300 mg/kg | 100 mg/kg | – | – |
| Clc1ccc(COc2ccc3c(c2)CCc2nncn2-3)cc1 | No activity | No activity | No activity | No activity | 300 mg/kg | – | 300 mg/kg | – | – |
| CCCC(CCC)C(=O)O [VALPROIC ACID] | – | – | – | – | – | – | – | – | ED50 (Mus musculus [20]): 272 mg/kg; ED50 (Mus musculus [21]): 149 mg/kg |
| Cc1ccc(COc2ccc3c(c2)CCc2nncn2-3)cc1 | – | No activity | No activity | No activity | 30 mg/kg | 100 mg/kg | 30 mg/kg | 5.9 | PI (Mus musculus [11]): 3.2; ED50 (Mus musculus [22]): 20.5 mg/kg; ED50 (Mus musculus [23]): 11.1 mg/kg |
| Fc1ccccc1COc1ccc2c(c1)CCc1nncn1-2 | No activity | No activity | No activity | No activity | 300 mg/kg | – | 300 mg/kg | – | – |
| c1cc2c(cc1COc1ccc3c(c1)CCc1nncn1-3)OCO2 | – | No activity | No activity | No activity | 100 mg/kg | 300 mg/kg | 100 mg/kg | – | – |
| Fc1cccc(F)c1COc1ccc2c(c1)CCc1nncn1-2 | No activity | No activity | No activity | No activity | – | – | – | – | DOSE (Mus musculus [2]): No activity; DOSE (Mus musculus [4]): No activity |
| CCCCCCCCOc1ccc2c(c1)CCc1nncn1-2 | No activity | No activity | No activity | No activity | – | – | 100 mg/kg | – | Dose (Mus musculus [24]): 100 mg/kg |
| Fc1ccc(COc2ccc3c(c2)CCc2nncn2-3)cc1 | – | No activity | – | No activity | 30 mg/kg | – | 30 mg/kg | 8.1 | ED50 (Mus musculus [25]): 11.8 mg/kg; PI (Mus musculus [11]): 4.6; Dose (Mus musculus [26]): 100 mg/kg; Dose (Mus musculus [27]): 30 mg/kg; ED50 (Mus musculus [28]): 6.7 mg/kg |
